Laboratory results published in patent US8846928B2 (Portola Pharmaceuticals, Inc., priority 2010, dated 2014).

Molecular target: T1, full length active recombinant SYK enzyme (Homo sapiens, UniProt P43405)
T1 construct: full length active recombinant SYK enzyme (Millipore, Calif.); purchased Millipore
Experiment: Inhibition of Syk tyrosine phosphorylation activity (LANCE TR-FRET kinase assay)
Format: biochemical

Row | IC50 | SMILES
1 | 1 to 10 nM | C[C@H](N)CNc1nc(Nc2cccc(-n3nccn3)c2)c(C(N)=O)cc1F [Example 257, (S)-2-(3-(2H-1,2,3-triazol-2-yl)phenylamino)-6-(2-aminopropylamino)-5-fluoronicotinamide]
2 | 10 to 100 nM | C[C@H](N)CNc1nc(Nc2cccc(-c3ncccn3)c2)c(C(N)=O)cc1F [Example 258, (S)-2-(3-(pyrimidin-2-yl)phenylamino)-6-(2-aminopropylamino)-5-fluoronicotinamide]
3 | 1 to 10 nM | C[C@H](N)CNc1nc(Nc2cccc(-n3cccn3)c2)c(C(N)=O)cc1F [Example 259, (S)-2-(3-(1H-pyrazol-1-yl)phenylamino)-6-(2-aminopropylamino)-5-fluoronicotinamide]
4 | 10 to 100 nM | Cc1cncc(Nc2nc(NC[C@H](C)N)c(F)cc2C(N)=O)c1 [Example 260, (S)-2-(5-methylpyridin-3-ylamino)-6-(2-aminopropylamino)-5-fluoronicotinamide]
5 | 100 to 1000 nM | C[C@H](N)CNc1nc(Nc2cncc(F)c2)c(C(N)=O)cc1F [Example 261, (S)-2-(5-fluoropyridin-3-ylamino)-6-(2-aminopropylamino)-5-fluoronicotinamide]
6 | 100 to 1000 nM | CC[C@@H](Nc1nc(Nc2cccc(OC(F)(F)F)c2)c(C(N)=O)cc1F)C(N)=O [Example 263, (R)-6-(1-amino-1-oxobutan-2-ylamino)-5-fluoro-2-(3-(trifluoromethoxy)phenylamino)nicotinamide]
7 | 100 to 1000 nM | CC[C@@H](Nc1nc(Nc2cccc(OC(F)F)c2)c(C(N)=O)cc1F)C(N)=O [Example 264, (R)-6-(1-amino-1-oxobutan-2-ylamino)-5-fluoro-2-(3-(difluoromethoxy)phenylamino)nicotinamide]
8 | 10 to 100 nM | CC(C)C[C@@H](Nc1nc(Nc2cccc(Cl)c2)c(C(N)=O)cc1F)C(N)=O [Example 265, (R)-6-(1-amino-4-methyl-1-oxopentan-2-ylamino)-5-fluoro-2-(3-chlorophenylamino)nicotinamide]
9 | 10 to 100 nM | CC(C)C[C@@H](Nc1nc(Nc2ccc(F)c(Cl)c2)c(C(N)=O)cc1F)C(N)=O [Example 266, (R)-6-(1-amino-4-methyl-1-oxopentan-2-ylamino)-5-fluoro-2-(3-chloro-4-fluorophenylamino)nicotinamide]
10 | 10 to 100 nM | NC(=O)c1cc(F)c(N[C@@H]2CCOC[C@@H]2N)nc1Nc1cnc2ccccc2c1 [Example 275, 6-((3R,4R)-3-aminotetrahydro-2H-pyran-4-ylamino)-5-fluoro-2-(quinolin-3-ylamino)nicotinamide]
11 | 1 to 10 nM | NC(=O)c1ccc(N[C@@H]2CCOC[C@@H]2N)nc1Nc1ccc2ncccc2c1 [Example 276, 6-((3R,4R)-3-aminotetrahydro-2H-pyran-4-ylamino)-2-(quinolin-6-ylamino)nicotinamide]
12 | 1 to 10 nM | NC(=O)c1cc(F)c(N[C@@H]2CCOC[C@@H]2N)nc1Nc1cccc(-n2nccn2)c1 [Example 279, 2-(3-(2H-1,2,3-triazol-2-yl)phenylamino)-6-((3R,4R)-3-aminotetrahydro-2H-pyran-4-ylamino)-5-fluoronicotinamide]
13 | 100 to 1000 nM | NC(=O)c1cc(F)c(N[C@@H]2CCCC(F)(F)[C@@H]2N)nc1Nc1cnc2ccccc2c1 [Example 289, 6-((1R,2R)-2-amino-3,3-difluorocyclohexylamino)-5-fluoro-2-(quinolin-3-ylamino)nicotinamide]
14 | 10 to 100 nM | NC(=O)c1cc(F)c(N[C@@H]2CCCC(F)(F)[C@@H]2N)nc1Nc1ccc2ncccc2c1 [Example 291, 6-((1R,2R)-2-amino-3,3-difluorocyclohexylamino)-5-fluoro-2-(quinolin-6-ylamino)nicotinamide]
15 | 100 to 1000 nM | NC(=O)c1cc(F)c(N[C@@H]2CCCC(F)(F)[C@@H]2N)nc1Nc1cccc(-n2nccn2)c1 [Example 293]
16 | 10 to 100 nM | CC(C)[C@@H](Nc1nc(Nc2cnc3ccccc3c2)c(C(N)=O)cc1F)C(N)=O [Example 300, (R)-6-(1-amino-3-methyl-1-oxobutan-2-ylamino)-5-fluoro-2-(quinolin-3-ylamino)nicotinamide]
17 | 10 to 100 nM | NC(=O)c1cc(F)c(N[C@H](CC(F)(F)F)C(N)=O)nc1Nc1cnc2ccccc2c1 [Example 301, (R)-6-(1-amino-4,4,4-trifluoro-1-oxobutan-2-ylamino)-5-fluoro-2-(quinolin-3-ylamino)nicotinamide]
18 | 10 to 100 nM | C[C@@H](Nc1nc(Nc2ccc3ncccc3c2)c(C(N)=O)cc1F)C(N)=O [Example 302, (R)-6-(1-amino-1-oxopropan-2-ylamino)-5-fluoro-2-(quinolin-6-ylamino)nicotinamide]
19 | 100 to 1000 nM | CC[C@@H](Nc1nc(Nc2ccc(C3CC[N+](C)([O-])CC3)cc2)c(C(N)=O)cc1F)C(N)=O (stereo partly drawn) [Example 308, (R)-4-(4-(6-(1-amino-1-oxobutan-2-ylamino)-3-carbamoyl-5-fluoropyridin-2-ylamino)phenyl)-1-methylpiperidine 1-oxide]
20 | 10 to 100 nM | CN1CCC(c2ccc(Nc3nc(N[C@@H]4CCCC[C@@H]4N)c(F)cc3C(N)=O)cc2)CC1 [Example 309, 6-((1R,2S)-2-aminocyclohexylamino)-5-fluoro-2-(4-(1-methylpiperidin-4-yl)phenylamino)nicotinamide]
21 | 1 to 10 nM | NC(=O)c1cc(F)c(N[C@@H]2CCCC[C@@H]2N)nc1Nc1ccc2scnc2c1 [Example 310]
22 | 1 to 10 nM | NC(=O)c1cc(F)c(N[C@@H]2CCCC[C@@H]2N)nc1Nc1ccccc1 [Example 312, 6-((1R,2S)-2-aminocyclohexylamino)-5-fluoro-2-(phenylamino)nicotinamide]
23 | 10 to 100 nM | Cc1ccccc1Nc1nc(N[C@@H]2CCCC[C@@H]2N)c(F)cc1C(N)=O [Example 313, 6-((1R,2S)-2-aminocyclohexylamino)-5-fluoro-2-(o-tolylamino)nicotinamide]
24 | 1 to 10 nM | Cc1cccc(Nc2nc(N[C@@H]3CCCC[C@@H]3N)c(F)cc2C(N)=O)c1 [Example 314, 6-((1R,2S)-2-aminocyclohexylamino)-5-fluoro-2-(m-tolylamino)nicotinamide]
25 | 1 to 10 nM | Cc1ccc(Nc2nc(N[C@@H]3CCCC[C@@H]3N)c(F)cc2C(N)=O)cc1 [Example 315, 6-((1R,2S)-2-aminocyclohexylamino)-5-fluoro-2-(p-tolylamino)nicotinamide]
26 | 1 to 10 nM | NC(=O)c1cc(F)c(N[C@@H]2CCCC[C@@H]2N)nc1Nc1cccc(F)c1 [Example 316, 6-((1R,2S)-2-aminocyclohexylamino)-5-fluoro-2-(3-fluorophenylamino)nicotinamide]
27 | 1 to 10 nM | NC(=O)c1cc(F)c(N[C@@H]2CCCC[C@@H]2N)nc1Nc1cccc(Cl)c1 [Example 317, 6-((1R,2S)-2-aminocyclohexylamino)-2-(3-chlorophenylamino)-5-fluoronicotinamide]
28 | 10 to 100 nM | NC(=O)c1cc(F)c(N[C@@H]2CCCC[C@@H]2N)nc1Nc1ccc(Cl)cc1 [Example 318, 6-((1R,2S)-2-aminocyclohexylamino)-2-(4-chlorophenylamino)-5-fluoronicotinamide]
29 | 10 to 100 nM | Cc1cccc(Nc2nc(N[C@@H]3CCCC[C@@H]3N)c(F)cc2C(N)=O)c1C [Example 319, 6-((1R,2S)-2-aminocyclohexylamino)-2-(2,3-dimethylphenylamino)-5-fluoronicotinamide]
